Measured values published in patent US8735414B2 (priority 2009, dated 2014).

Assays:
[1] = tested on: bicistronic HCV replicon (replicon RNA, GenBank Accession No. AJ242654); assay: HCV Replicon Assay; type: cell-based; conditions: Hepatitis C virus, 72 h, read-out: Replicon IC50

| Compound | IC50 [1] | melting point |
| --- | --- | --- |
| COc1ccc2c(C#N)c(-c3ncc(S(=O)(=O)NC(C)C)cn3)n(C3CCC3)c2c1 [compound 172, 2-(3-cyano-1-cyclobutyl-6-methoxy-1H-indol-2-yl)-N-(propan-2-yl)pyrimidine-5-sulfonamide] | < 500 nM | 200 to 202 °C |
| N#Cc1c(-c2ncc(S(=O)(=O)NC(CF)CF)cn2)n(C2CCCCC2)c2ccc(F)cc12 [compound 527, 2-(3-cyano-1-cyclohexyl-5-fluoro-1H-indol-2-yl)-N-(1,3-difluoropropan-2-yl)pyrimidine-5-sulfonamide] | < 500 nM | 250 to 253 °C |
| CCOc1cc2c(cc1F)c(C#N)c(-c1ccc(S(=O)(=O)N[C@@H](C)C(F)(F)F)cn1)n2C1CCC1 [compound 726, 6-(3-cyano-1-cyclobutyl-6-ethoxy-5-fluoro-1H-indol-2-yl)-N-[(2S)-1,1,1-trifluoropropan-2-yl]pyridine-3-sulfonamide] | < 500 nM | 193 to 196 °C |
| Cc1ccc2c(c1)c(C#N)c(-c1ccc(S(=O)(=O)N[C@@H](C)C(F)(F)F)cn1)n2C1CCCCC1 [compound 560, 6-(3-cyano-1-cyclohexyl-5-methyl-1H-indol-2-yl)-N-[(2S)-1,1,1-trifluoropropan-2-yl]pyridine-3-sulfonamide] | < 500 nM | 175 to 180 °C |
| C[C@H](NS(=O)(=O)c1cnc(-c2c(C#N)c3ccc(F)cc3n2C2CCC2)nc1)C(F)(F)F [compound 494, 2-(3-cyano-1-cyclobutyl-6-fluoro-1H-indol-2-yl)-N-[(2S)-1,1,1-trifluoropropan-2-yl]pyrimidine-5-sulfonamide] | 2000 to 5000 nM | 223 to 225 °C |
| N#Cc1c(-c2ccc(S(=O)(=O)NC(CF)CF)cn2)n(C2CCCC2)c2cc(OC(F)(F)F)ccc12 [compound 70, 6-[3-cyano-1-cyclopentyl-6-(trifluoromethoxy)-1H-indol-2-yl]-N-(1,3-difluoropropan-2-yl)pyridine-3-sulfonamide] | < 500 nM | 141 to 143 °C |
| Cc1c(F)cc2c(C#N)c(-c3ccc(S(=O)(=O)NC(C)(C)C(F)(F)F)cn3)n(C3CCCC3)c2c1F [compound 580, 6-(3-cyano-1-cyclopentyl-5,7-difluoro-6-methyl-1H-indol-2-yl)-N-(1,1,1-trifluoro-2-methylpropan-2-yl)pyridine-3-sulfonamide] | < 500 nM | 226 to 232 °C |
| N#Cc1c(-c2ncc(S(=O)(=O)NC(CF)CF)cn2)n(CC2CC2)c2cc(CC(F)F)ccc12 [compound 621, 2-[3-cyano-1-(cyclopropylmethyl)-6-(2,2-difluoroethyl)-1H-indol-2-yl]-N-(1,3-difluoropropan-2-yl)pyrimidine-5-sulfonamide] | < 500 nM | 180 to 188 °C |
| C[C@H](NS(=O)(=O)c1ccc(-c2c(C(N)=O)c3cc(F)c(OC(F)F)cc3n2C2CCCC2)nc1)C(F)(F)F [compound 806, 1-cyclopentyl-6-(difluoromethoxy)-5-fluoro-2-(5-{[(2S)-1,1,1-trifluoropropan-2-yl]sulfamoyl}pyridin-2-yl)-1H-indole-3-carboxamide] | < 500 nM | 220 to 222 °C |
| C[C@H](NS(=O)(=O)c1ccc(-c2c(C#N)c3ccc(OC(F)F)cc3n2-c2ccccc2)nc1)C(F)(F)F [compound 553, 6-[3-cyano-6-(difluoromethoxy)-1-phenyl-1H-indol-2-yl]-N-[(2S)-1,1,1-trifluoropropan-2-yl]pyridine-3-sulfonamide] | < 500 nM | 209 to 211 °C |
| N#Cc1c(-c2ncc(S(=O)(=O)NC(CF)CF)cn2)n(C2CCC2)c2cc(OC(F)F)c(Cl)cc12 [compound 659, 2-[5-chloro-3-cyano-1-cyclobutyl-6-(difluoromethoxy)-1H-indol-2-yl]-N-(1,3-difluoropropan-2-yl)pyrimidine-5-sulfonamide] | < 500 nM | 228 to 232 °C |
| C[C@H](NS(=O)(=O)c1ccc(-c2c(C(N)=O)c3cc(F)c(OC(F)F)cc3n2C2CCC2)nc1)C(F)(F)F [compound 703, 1-cyclobutyl-6-(difluoromethoxy)-5-fluoro-2-(5-{[(2S)-1,1,1-trifluoropropan-2-yl]sulfamoyl}pyridin-2-yl)-1H-indole-3-carboxamide] | < 500 nM | 184 to 186 °C |
| CC(C)n1c(-c2ccc(S(=O)(=O)N[C@@H](C)C(F)(F)F)cn2)c(C#N)c2cc(F)c(OC(F)F)cc21 [compound 936, 6-[3-cyano-6-(difluoromethoxy)-5-fluoro-1-(propan-2-yl)-1H-indol-2-yl]-N-[(2S)-1,1,1-trifluoropropan-2-yl]pyridine-3-sulfonamide] | < 500 nM | 184 to 188 °C |
| C[C@H](NS(=O)(=O)c1ccc(-c2c(C#N)c3cc(Cl)ccc3n2C2CCCC2)nc1)C(F)(F)F [compound 365, 6-(5-chloro-3-cyano-1-cyclopentyl-1H-indol-2-yl)-N-[(2S)-1,1,1-trifluoropropan-2-yl]pyridine-3-sulfonamide] | < 500 nM | 207 to 214 °C |
| Cc1cc2c(C(N)=O)c(-c3ccc(S(=O)(=O)N[C@@H](C)C(F)(F)F)cn3)n(-c3ncccn3)c2cc1F [compound 918, 6-fluoro-5-methyl-1-(pyrimidin-2-yl)-2-(5-{[(2S)-1,1,1-trifluoropropan-2-yl]sulfamoyl}pyridin-2-yl)-1H-indole-3-carboxamide] | 2000 to 5000 nM | 245 to 249 °C |
| N#Cc1c(-c2ccc(S(=O)(=O)NC(CF)CF)cn2)n(-c2ccncc2)c2ccc(F)cc12 [compound 259, 6-[3-cyano-5-fluoro-1-(pyridin-4-yl)-1H-indol-2-yl]-N-(1,3-difluoropropan-2-yl)pyridine-3-sulfonamide] | < 500 nM | 199 to 203 °C |
| C[C@H](NS(=O)(=O)c1ccc(-c2c(C(N)=O)c3cc(Cl)ccc3n2C2CCC2)nc1)C(F)(F)F [compound 996, 5-chloro-1-cyclobutyl-2-(5-{[(2S)-1,1,1-trifluoropropan-2-yl]sulfamoyl}pyridin-2-yl)-1H-indole-3-carboxamide] | < 500 nM | 244 to 245 °C |
| Cc1ccc(-n2c(-c3ccc(S(=O)(=O)NC(CF)CF)cn3)c(C#N)c3cc(F)ccc32)cc1 [compound 356, 6-[3-cyano-5-fluoro-1-(4-methylphenyl)-1H-indol-2-yl]-N-(1,3-difluoropropan-2-yl)pyridine-3-sulfonamide] | < 500 nM | 208 to 210 °C |
| N#Cc1c(-c2ccc(S(=O)(=O)NC(CF)CF)cn2)n(-c2ccccn2)c2cc(Cl)ccc12 [compound 438, 6-[6-chloro-3-cyano-1-(pyridin-2-yl)-1H-indol-2-yl]-N-(1,3-difluoropropan-2-yl)pyridine-3-sulfonamide] | < 500 nM | 219 to 221 °C |
| Cc1cc2c(cc1F)c(C#N)c(-c1ccc(S(=O)(=O)N[C@@H](C)C(F)(F)F)c(C)n1)n2C1CCCC1 [compound 868, 6-(3-cyano-1-cyclopentyl-5-fluoro-6-methyl-1H-indol-2-yl)-2-methyl-N-[(2S)-1,1,1-trifluoropropan-2-yl]pyridine-3-sulfonamide] | < 500 nM | 206 to 211 °C |
| Cc1cnc(-n2c(-c3ccc(S(=O)(=O)N[C@@H](C)C(F)(F)F)cn3)c(C#N)c3cc(F)c(C)cc32)s1 [compound 1017, 6-[3-cyano-5-fluoro-6-methyl-1-(5-methyl-1,3-thiazol-2-yl)-1H-indol-2-yl]-N-[(2S)-1,1,1-trifluoropropan-2-yl]pyridine-3-sulfonamide] | < 500 nM | 223.1 to 228.1 °C |
| Cc1ccc(-n2c(-c3ccc(S(=O)(=O)N[C@@H](C)C(F)(F)F)cn3)c(C#N)c3cc(F)c(C)cc32)nc1 [compound 885, 6-[3-cyano-5-fluoro-6-methyl-1-(5-methylpyridin-2-yl)-1H-indol-2-yl]-N-[(2S)-1,1,1-trifluoropropan-2-yl]pyridine-3-sulfonamide] | < 500 nM | 250 to 254 °C |
| CNC(=O)c1c(-c2ncc(S(=O)(=O)NC(C)(C)C)cn2)n(C2CCC2)c2cc(C)c(F)cc12 [compound 802, 2-[5-(tert-butylsulfamoyl)pyrimidin-2-yl]-1-cyclobutyl-5-fluoro-N,6-dimethyl-1H-indole-3-carboxamide] | < 500 nM | 211 to 213 °C |
| CC(C)NS(=O)(=O)c1cnc(-c2c(C(N)=O)c3ccc(Cl)cc3n2C2CCC2)nc1 [compound 780, 6-chloro-1-cyclobutyl-2-[5-(propan-2-ylsulfamoyl)pyrimidin-2-yl]-1H-indole-3-carboxamide] | < 500 nM | 251 to 253 °C |
| COc1cc2c(cc1F)c(C#N)c(-c1ccc(S(=O)(=O)NC(CF)CF)cn1)n2CC1CC1 [compound 225, 6-[3-cyano-1-(cyclopropylmethyl)-5-fluoro-6-methoxy-1H-indol-2-yl]-N-(1,3-difluoropropan-2-yl)pyridine-3-sulfonamide] | < 500 nM | 196 to 199 °C |
| Cc1cc2c(cc1F)c(C#N)c(-c1ccc(NS(=O)(=O)N[C@@H](C)C(F)(F)F)cn1)n2C1CCCC1 [compound 836, N-[6-(3-cyano-1-cyclopentyl-5-fluoro-6-methyl-1H-indol-2-yl)pyridin-3-yl]-N′-[(2S)-1,1,1-trifluoropropan-2-yl]sulfuric diamide] | 500 to 2000 nM | 206 to 208 °C |
| CC(C)NS(=O)(=O)c1ccc(-c2c(C#N)c3ccc(OC4CCC4)cc3n2C2CCC2)cn1 [compound 4, 5-[3-cyano-1-cyclobutyl-6-(cyclobutyloxy)-1H-indol-2-yl]-N-(propan-2-yl)pyridine-2-sulfonamide] | 2000 to 5000 nM | 178 to 180 °C |
| Cc1cc(NS(=O)(=O)C(C)(C)C)ncc1-c1c(C(N)=O)c2cc(F)c(OC(F)F)cc2n1[C@H](C)C1CC1 [compound 1087, 2-{6-[(tert-butylsulfonyl)amino]-4-methylpyridin-3-yl}-1-[(1R)-1-cyclopropylethyl]-6-(difluoromethoxy)-5-fluoro-1H-indole-3-carboxamide] | < 500 nM | 250 to 254 °C |
